The record followed here is patent EP0133550B1, “Process for producing arphamenine in high yield” (MICROBIAL CHEMISTRY RESEARCH FOUNDATION, priority 1983, dated 1985).

The assay addresses T1, aminopeptidase B (Rattus norvegicus, UniProt O09175).
T1 sequence (O09175 1-650): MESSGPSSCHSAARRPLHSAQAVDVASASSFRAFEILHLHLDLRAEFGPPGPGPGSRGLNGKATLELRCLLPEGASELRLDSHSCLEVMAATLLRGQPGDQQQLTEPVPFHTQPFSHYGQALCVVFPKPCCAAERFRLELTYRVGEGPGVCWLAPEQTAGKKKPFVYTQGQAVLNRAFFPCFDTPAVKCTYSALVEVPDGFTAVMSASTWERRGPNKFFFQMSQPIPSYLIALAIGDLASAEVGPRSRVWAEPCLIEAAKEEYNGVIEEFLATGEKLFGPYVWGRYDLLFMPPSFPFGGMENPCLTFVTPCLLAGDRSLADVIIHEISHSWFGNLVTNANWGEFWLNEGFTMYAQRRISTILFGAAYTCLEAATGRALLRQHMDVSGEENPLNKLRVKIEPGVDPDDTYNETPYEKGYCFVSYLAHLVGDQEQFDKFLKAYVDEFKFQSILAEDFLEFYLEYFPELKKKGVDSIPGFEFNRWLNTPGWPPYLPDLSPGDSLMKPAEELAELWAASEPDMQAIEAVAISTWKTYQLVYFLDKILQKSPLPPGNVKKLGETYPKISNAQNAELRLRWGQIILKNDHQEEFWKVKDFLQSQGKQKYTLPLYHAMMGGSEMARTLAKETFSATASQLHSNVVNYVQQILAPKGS
Kind of assay: Inhibition of aminopeptidase B (improved method of Hoppusu et al., arginine-ß-naphthylamide substrate, absorbance at 525 nm). In kind it is biochemical. The following applies: 0.002 M arginine-ß-naphthylamide, pH 7.0, 30 minutes at 37°C; read-out: IC50 (concentration which inhibited 50% of aminopeptidase B activity) (converted).

Procedure: The amount (potency) of arphamenine was determined by an improved method based on the method of Hoppusu et al. (V.K. HOPPUSU, K.K. MAKINEN & G.G. GLENNER, Archieves of Biochemistry and Biophysics 114, 557,1966). In detail, 0.5 ml of 0.1 M tris-hydrochloric acid buffer solution (pH 7.0) and 0.25 ml of a solution containing the specimen were added to 0.25 ml of 0.002 M arginine-ß-naphthylamide. The resulting mixed solution was heated for 3 minutes at 37°C. To the heated solution was added 5 pl of a solution of aminopeptidase B that had been purified by the use of DEAE-cellulose according to the enzyme- purification technique of Hoppusu et al.
The mixture was reacted for 30 minutes at 37°C, followed by adding to the reaction mixture 1 ml of 1.0 M acetic acid buffer solution (pH 4.2) containing Fast Garnet GBC@ (0-aminoazotoluene diazonium salt) in a concentration of 1 mg/ml and the surfactant Tween 20@ in a concentration of 10%.
The resulting mixture was allowed to stand for 15 minutes at room temperature, and measured for adsorbance (a) at 525 nm. Simultaneously, a blank absorbance (b) was obtained using an arphamenine- free buffer solution only. Percent inhibition of aminopeptidase B was calculated from the equation [(b-a)/b] x 100.

With `N=C(N)NCCCC(N)C(=O)CC(Cc1ccc(O)cc1)C(=O)O` (stereo not shown) [arphamenine B], the IC50 is 5.95 nM.
